Measured values taken from PMC5218480 (PLoS ONE, 2017).

Test system: MV-4-11 cells
Assay: Gene expression microarray analysis (Affymetrix PrimeView) and GSEA
Assay type: cell-based, human
Set-up: RFU PODN (11730768_x_at) / Fold change /veh PODN (11730768_x_at) / RFU LINC00158 (11744669_a_at) / Fold change /veh LINC00158 (11744669_a_at) / RFU DUSP10 (11751237_a_at) / Fold change /veh DUSP10 (11751237_a_at) / RFU ID3 (11757404_x_at) / Fold change /veh ID3 (11757404_x_at) / RFU PLEKHG5 (11737974_s_at) / Fold change /veh PLEKHG5 (11737974_s_at) / RFU LRRC4B (11730491_at) / Fold change /veh LRRC4B (11730491_at) / RFU GIMAP4 (11747438_a_at) / Fold change /veh GIMAP4 (11747438_a_at) / RFU KRT8 (11758183_x_at) / Fold change /veh KRT8 (11758183_x_at) / RFU CNN1 (11734310_a_at) / Fold change /veh CNN1 (11734310_a_at) / RFU VPS37D (11726825_at) / Fold change /veh VPS37D (11726825_at) / RFU C10orf10 (11716522_x_at) / Fold change /veh C10orf10 (11716522_x_at) / RFU KIR2DL2 /// KIR2DL4 /// KIR2DL5A /// KIR2DL5B /// KIR2DS1 /// KIR2DS2 /// KIR2DS3 /// KIR2DS4 /// KIR3DL3 /// KIR3DL3 /// KIR3DS1 (11738374_at) / Fold change /veh KIR2DL2 /// KIR2DL4 /// KIR2DL5A /// KIR2DL5B /// KIR2DS1 /// KIR2DS2 /// KIR2DS3 /// KIR2DS4 /// KIR3DL3 /// KIR3DL3 /// KIR3DS1 (11738374_at) / RFU C1QL1 (11718748_at) / Fold change /veh C1QL1 (11718748_at) / RFU TMPRSS4 (11747572_a_at) / Fold change /veh TMPRSS4 (11747572_a_at) / RFU HAMP (11756126_x_at) / Fold change /veh HAMP (11756126_x_at) / RFU RNFT2 (11725882_a_at) / Fold change /veh RNFT2 (11725882_a_at) / RFU NR4A2 (11747474_a_at) / Fold change /veh NR4A2 (11747474_a_at) / RFU ABCC12 (11746883_a_at) / Fold change /veh ABCC12 (11746883_a_at) / RFU TMEM136 (11760407_x_at) / Fold change /veh TMEM136 (11760407_x_at) / RFU CLDN22 /// WWC2 (11732394_at) / Fold change /veh CLDN22 /// WWC2 (11732394_at) / RFU HLA-DPB1 (11760878_x_at) / Fold change /veh HLA-DPB1 (11760878_x_at) / RFU SPINT1 (11716480_a_at) / Fold change /veh SPINT1 (11716480_a_at) / RFU GAP43 (11754022_s_at) / Fold change /veh GAP43 (11754022_s_at) / RFU A4GNT (11735810_at) / Fold change /veh A4GNT (11735810_at) / RFU PRB3 (11715151_x_at) / Fold change /veh PRB3 (11715151_x_at) / RFU TUBB4B (11761932_at) / Fold change /veh TUBB4B (11761932_at) / RFU CAPN14 (11732068_a_at) / Fold change /veh CAPN14 (11732068_a_at) / RFU TMCC2 (11721928_a_at) / Fold change /veh TMCC2 (11721928_a_at) / RFU IRGQ (11745062_a_at) / Fold change /veh IRGQ (11745062_a_at) / RFU FAM174B (11720279_a_at) / Fold change /veh FAM174B (11720279_a_at) / RFU TMPRSS4 (11748680_a_at) / Fold change /veh TMPRSS4 (11748680_a_at) / RFU FAM212B (11763350_a_at) / Fold change /veh FAM212B (11763350_a_at) / RFU PLEKHG5 (11743358_a_at) / Fold change /veh PLEKHG5 (11743358_a_at) / RFU ZSCAN30 (11745921_a_at) / Fold change /veh ZSCAN30 (11745921_a_at) / RFU CMKLR1 (11741424_a_at) / Fold change /veh CMKLR1 (11741424_a_at) / RFU LOC101060620 /// MAPK8IP1 (11723275_at) / Fold change /veh LOC101060620 /// MAPK8IP1 (11723275_at) / RFU SPTSSB (11747773_x_at) / Fold change /veh SPTSSB (11747773_x_at) / RFU PRSS12 (11739890_at) / Fold change /veh PRSS12 (11739890_at) / RFU BIN1 (11741810_x_at) / Fold change /veh BIN1 (11741810_x_at) / RFU WNT11 (11732464_a_at) / Fold change /veh WNT11 (11732464_a_at) / RFU C10orf10 (11716521_a_at) / Fold change /veh C10orf10 (11716521_a_at) / RFU C5orf56 (11738089_at) / Fold change /veh C5orf56 (11738089_at) / RFU CYB561 (11721691_x_at) / Fold change /veh CYB561 (11721691_x_at) / RFU ANKRD19P (11752326_a_at) / Fold change /veh ANKRD19P (11752326_a_at) / RFU OR2T12 /// OR2T33 /// OR2T8 (11738714_s_at) / Fold change /veh OR2T12 /// OR2T33 /// OR2T8 (11738714_s_at) / RFU VCAN (11748164_a_at) / Fold change /veh VCAN (11748164_a_at) / RFU JSRP1 (11732532_at) / Fold change /veh JSRP1 (11732532_at) / RFU KRTAP10-11 (11738290_x_at) / Fold change /veh KRTAP10-11 (11738290_x_at) / RFU MYO3A (11730013_a_at) / Fold change /veh MYO3A (11730013_a_at) / RFU EBF3 (11725865_a_at) / Fold change /veh EBF3 (11725865_a_at) / RFU CAMK2N1 (11719241_x_at) / Fold change /veh CAMK2N1 (11719241_x_at) / RFU C5orf56 (11738088_a_at) / Fold change /veh C5orf56 (11738088_a_at) / RFU OLFML3 (11715873_a_at) / Fold change /veh OLFML3 (11715873_a_at) / RFU LOC100653217 /// NTM (11731650_a_at) / Fold change /veh LOC100653217 /// NTM (11731650_a_at) / RFU MAPK11 (11762145_a_at) / Fold change /veh MAPK11 (11762145_a_at) / RFU FIZ1 (11724087_x_at) / Fold change /veh FIZ1 (11724087_x_at) / RFU OASL (11726364_x_at) / Fold change /veh OASL (11726364_x_at) / RFU SOX15 (11748057_x_at) / Fold change /veh SOX15 (11748057_x_at) / RFU CD79A (11719716_a_at) / Fold change /veh CD79A (11719716_a_at) / RFU HIST1H1D (11736915_at) / Fold change /veh HIST1H1D (11736915_at) / RFU CASKIN2 (11723855_a_at) / Fold change /veh CASKIN2 (11723855_a_at) / RFU LOC730098 (11760151_x_at) / Fold change /veh LOC730098 (11760151_x_at) / RFU OR4N2 (11742367_at) / Fold change /veh OR4N2 (11742367_at) / RFU PRRT2 (11749266_a_at) / Fold change /veh PRRT2 (11749266_a_at) / RFU SNX32 (11753110_a_at) / Fold change /veh SNX32 (11753110_a_at) / RFU CDHR5 (11726645_a_at) / Fold change /veh CDHR5 (11726645_a_at) / RFU RCAN1 (11760418_a_at) / Fold change /veh RCAN1 (11760418_a_at) / RFU FAM167A (11723789_a_at) / Fold change /veh FAM167A (11723789_a_at) / RFU FAM26E (11764081_at) / Fold change /veh FAM26E (11764081_at) / RFU ISYNA1 (11749810_s_at) / Fold change /veh ISYNA1 (11749810_s_at) / RFU ACY1 (11761880_at) / Fold change /veh ACY1 (11761880_at) / RFU 11764098_at / Fold change /veh 11764098_at / RFU SAMD14 (11745864_x_at) / Fold change /veh SAMD14 (11745864_x_at) / RFU NPB (11741838_a_at) / Fold change /veh NPB (11741838_a_at) / RFU TMPRSS6 (11731388_a_at) / Fold change /veh TMPRSS6 (11731388_a_at) / RFU KRTAP10-2 (11738614_at) / Fold change /veh KRTAP10-2 (11738614_at) / RFU ARHGAP8 /// PRR5-ARHGAP8 (11727945_x_at) / Fold change /veh ARHGAP8 /// PRR5-ARHGAP8 (11727945_x_at) / RFU KRTAP5-7 /// NADSYN1 (11734609_at) / Fold change /veh KRTAP5-7 /// NADSYN1 (11734609_at) / RFU RASL12 (11751679_a_at) / Fold change /veh RASL12 (11751679_a_at) / RFU CDKN2B (11736163_a_at) / Fold change /veh CDKN2B (11736163_a_at) / RFU PRF1 (11729649_at) / Fold change /veh PRF1 (11729649_at) / RFU, ZNF638 /// ZNF638-IT1 / Fold change vs veh, ZNF638 /// ZNF638-IT1 / RFU, PANK3 / Fold change vs veh, PANK3 / RFU, SH3YL1 / Fold change vs veh, SH3YL1 / RFU, ZEB2 / Fold change vs veh, ZEB2 / RFU, NRIP1 / Fold change vs veh, NRIP1 / RFU, PTTG1IP / Fold change vs veh, PTTG1IP / RFU, CAPN2 / Fold change vs veh, CAPN2 / RFU, MED14 / Fold change vs veh, MED14 / RFU, SNORA58 / Fold change vs veh, SNORA58 / RFU, C1orf63 / Fold change vs veh, C1orf63 / RFU, LRRFIP1 / Fold change vs veh, LRRFIP1 / RFU, NDUFAF7 / Fold change vs veh, NDUFAF7 / RFU, SLC12A2 / Fold change vs veh, SLC12A2 / RFU, IBTK / Fold change vs veh, IBTK / RFU, ESF1 / Fold change vs veh, ESF1 / Fold change vs veh, TMEM50B / RFU, TAOK1 / Fold change vs veh, TAOK1 / RFU, ACBD3 / Fold change vs veh, ACBD3 / RFU, TMA16 / Fold change vs veh, TMA16 / RFU, RWDD3 / Fold change vs veh, RWDD3 / RFU, BCAT1 / Fold change vs veh, BCAT1 / RFU, EDEM3 / Fold change vs veh, EDEM3 / RFU, TMEM33 / Fold change vs veh, TMEM33 / RFU, WDR75 / Fold change vs veh, WDR75 / RFU, AHCTF1 / Fold change vs veh, AHCTF1 / RFU, TFRC / Fold change vs veh, TFRC / RFU, ZDHHC17 / Fold change vs veh, ZDHHC17 / RFU, NOM1 / Fold change vs veh, NOM1 / RFU, ARL8B / Fold change vs veh, ARL8B / RFU, ZBTB11 / Fold change vs veh, ZBTB11 / RFU, TAMM41 / Fold change vs veh, TAMM41 / RFU, KIAA1704 /// LOC100996395 / Fold change vs veh, KIAA1704 /// LOC100996395 / RFU, ING1 / Fold change vs veh, ING1 / RFU, TRMT61B / Fold change vs veh, TRMT61B / RFU, FUBP3 / Fold change vs veh, FUBP3 / RFU, TP53 / Fold change vs veh, TP53 / RFU, TNKS2 / Fold change vs veh, TNKS2 / RFU, ZFP14 / Fold change vs veh, ZFP14 / RFU, ACTR2 / Fold change vs veh, ACTR2 / RFU, PPP3R1 / Fold change vs veh, PPP3R1 / RFU, PIK3R1 / Fold change vs veh, PIK3R1 / RFU, HNRNPA1 / Fold change vs veh, HNRNPA1 / RFU, RNF170 / Fold change vs veh, RNF170 / RFU, ZNF28 / Fold change vs veh, ZNF28 / RFU, RNGTT / Fold change vs veh, RNGTT / RFU, OGT / Fold change vs veh, OGT / RFU, BRD1 / Fold change vs veh, BRD1 / RFU, MARS / Fold change vs veh, MARS / RFU, ZNF655 / Fold change vs veh, ZNF655 / RFU, FAHD1 / Fold change vs veh, FAHD1 / RFU, BDP1 / Fold change vs veh, BDP1 / RFU, LRRCC1 / Fold change vs veh, LRRCC1 / RFU, ARID1A / Fold change vs veh, ARID1A / RFU, ZNF146 / Fold change vs veh, ZNF146 / RFU, ZNF330 / Fold change vs veh, ZNF330 / RFU, GPN3 / Fold change vs veh, GPN3 / RFU, C9orf123 / Fold change vs veh, C9orf123 / RFU, N4BP2L2 / Fold change vs veh, N4BP2L2 / RFU, ARFIP1 / Fold change vs veh, ARFIP1 / RFU, FAM179B / Fold change vs veh, FAM179B / RFU, BCL10 / Fold change vs veh, BCL10 / RFU, UHRF1BP1L / Fold change vs veh, UHRF1BP1L / RFU, BET1 / Fold change vs veh, BET1 / RFU, CNOT2 / Fold change vs veh, CNOT2 / RFU, ZNF268 / Fold change vs veh, ZNF268 / Fold change vs veh, ZNF507 / RFU, DGCR2 / Fold change vs veh, DGCR2 / RFU, WDSUB1 / Fold change vs veh, WDSUB1 / Fold change vs veh, HSP90B1 /// MIR3652 / RFU, ADSS / Fold change vs veh, ADSS / RFU, GK / Fold change vs veh, GK / RFU, ZNF148 / Fold change vs veh, ZNF148 / RFU, TAF9 / Fold change vs veh, TAF9 / RFU, SLC1A5 / Fold change vs veh, SLC1A5 / RFU, SLMO2 / Fold change vs veh, SLMO2 / RFU, ABCC4 / Fold change vs veh, ABCC4 / RFU, LOC101060439 /// RAP1B / Fold change vs veh, LOC101060439 /// RAP1B / RFU, RFX7 / Fold change vs veh, RFX7 / RFU, GTPBP10 / Fold change vs veh, GTPBP10 / RFU, CNEP1R1 / Fold change vs veh, CNEP1R1 / RFU, BIVM-ERCC5 /// ERCC5 / Fold change vs veh, BIVM-ERCC5 /// ERCC5 / RFU, ILF3 / Fold change vs veh, ILF3 / RFU 11762660_at / Fold change /veh 11762660_at / RFU VCAN (11757783_s_at) / Fold change /veh VCAN (11757783_s_at) / RFU DDX43 (11728927_at) / Fold change /veh DDX43 (11728927_at) / RFU KRT8 (11758188_x_at) / Fold change /veh KRT8 (11758188_x_at) / RFU NKD1 (11759106_at) / Fold change /veh NKD1 (11759106_at) / RFU SRD5A1 (11742802_a_at) / Fold change /veh SRD5A1 (11742802_a_at) / RFU TPSAB1 /// TPSB2 (11721975_s_at) / Fold change /veh TPSAB1 /// TPSB2 (11721975_s_at) / RFU GSTM3 (11746129_a_at) / Fold change /veh GSTM3 (11746129_a_at) / RFU IL23R (11737362_x_at) / Fold change /veh IL23R (11737362_x_at) / RFU TMEM51 (11727254_a_at) / Fold change /veh TMEM51 (11727254_a_at) / RFU PIWIL2 (11732686_x_at) / Fold change /veh PIWIL2 (11732686_x_at) / RFU ORM1 (11744905_x_at) / Fold change /veh ORM1 (11744905_x_at) / RFU CCDC152 (11743942_at) / Fold change /veh CCDC152 (11743942_at) / RFU ECM1 (11717891_a_at) / Fold change /veh ECM1 (11717891_a_at) / RFU IL23R (11748794_a_at) / Fold change /veh IL23R (11748794_a_at) / RFU TNFAIP8L3 (11732012_x_at) / Fold change /veh TNFAIP8L3 (11732012_x_at) / RFU MBOAT4 (11741988_at) / Fold change /veh MBOAT4 (11741988_at) / RFU 11764193_at / Fold change /veh 11764193_at / RFU TMEM53 (11763286_at) / Fold change /veh TMEM53 (11763286_at) / RFU MAGEB2 (11727129_at) / Fold change /veh MAGEB2 (11727129_at) / RFU TMEM200A (11744735_a_at) / Fold change /veh TMEM200A (11744735_a_at) / RFU CCDC152 (11751479_a_at) / Fold change /veh CCDC152 (11751479_a_at) / RFU FAM211A (11726209_a_at) / Fold change /veh FAM211A (11726209_a_at) / RFU RGS16 (11746705_a_at) / Fold change /veh RGS16 (11746705_a_at) / RFU VCAN (11755009_s_at) / Fold change /veh VCAN (11755009_s_at) / RFU RHOB (11743442_s_at) / Fold change /veh RHOB (11743442_s_at) / RFU RGS16 (11720943_a_at) / Fold change /veh RGS16 (11720943_a_at) / RFU RGS16 (11720944_at) / Fold change /veh RGS16 (11720944_at) / RFU, VPS4B / Fold change vs veh, VPS4B / RFU, CREB1 / Fold change vs veh, CREB1 / RFU, DNAJC13 / Fold change vs veh, DNAJC13 / RFU, GNAQ / Fold change vs veh, GNAQ / RFU, CDK5R1 / Fold change vs veh, CDK5R1 / RFU, ZRANB3 / Fold change vs veh, ZRANB3 / RFU, CUL4A / Fold change vs veh, CUL4A / RFU, CCNY / Fold change vs veh, CCNY / RFU, UFL1 / Fold change vs veh, UFL1 / RFU, COG3 / Fold change vs veh, COG3 / RFU, DIAPH2 / Fold change vs veh, DIAPH2 / RFU, SKA2 / Fold change vs veh, SKA2 / RFU, AFF3 / Fold change vs veh, AFF3 / RFU, LMF1 / Fold change vs veh, LMF1 / RFU, IPO11 / Fold change vs veh, IPO11 / RFU, DFFB / Fold change vs veh, DFFB / RFU, FOXP1 / Fold change vs veh, FOXP1 / RFU, CARD8 / Fold change vs veh, CARD8 / RFU, STRN3 / Fold change vs veh, STRN3 / RFU, ADK / Fold change vs veh, ADK / RFU, RASSF2 / Fold change vs veh, RASSF2 / RFU, WIPF1 / Fold change vs veh, WIPF1 / RFU, LARP1B / Fold change vs veh, LARP1B / RFU, RASA1 / Fold change vs veh, RASA1 / RFU, RB1 / Fold change vs veh, RB1 / RFU, PPFIA1 / Fold change vs veh, PPFIA1 / RFU, MAT2A / Fold change vs veh, MAT2A / RFU, CCT5 / Fold change vs veh, CCT5 / RFU, WDR92 / Fold change vs veh, WDR92 / RFU, CUX1 / Fold change vs veh, CUX1 / RFU, TTC7A / Fold change vs veh, TTC7A / RFU, TMEM135 / Fold change vs veh, TMEM135 / RFU, DEPTOR / Fold change vs veh, DEPTOR / RFU, CPM / Fold change vs veh, CPM / RFU, DNAJB6 / Fold change vs veh, DNAJB6 / RFU, CACNA2D3 / Fold change vs veh, CACNA2D3 / RFU, DTX4 / Fold change vs veh, DTX4 / RFU, TFCP2 / Fold change vs veh, TFCP2 / RFU, GMCL1 /// GMCL1P1 / Fold change vs veh, GMCL1 /// GMCL1P1 / RFU, AEBP2 / Fold change vs veh, AEBP2 / RFU, SNHG1 /// SNORD22 /// SNORD25 /// SNORD26 /// SNORD27 /// SNORD28 /// SNORD29 /// SNORD31 / Fold change vs veh, SNHG1 /// SNORD22 /// SNORD25 /// SNORD26 /// SNORD27 /// SNORD28 /// SNORD29 /// SNORD31 / Fold change (Aza/veh), C12orf56 (ProbeSet 11735607_a_at) / Fold change (ACY-1035/veh), C12orf56 (ProbeSet 11735607_a_at) / Fold change (Aza/veh), FGFR1OP (ProbeSet 11751329_s_at) / Fold change (ACY-1035/veh), FGFR1OP (ProbeSet 11751329_s_at) / Fold change (Aza/veh), VPS36 (ProbeSet 11739960_a_at) / Fold change (ACY-1035/veh), VPS36 (ProbeSet 11739960_a_at) / RFU SYPL1 (11715823_x_at) / Fold change /veh SYPL1 (11715823_x_at) / RFU IGFBP7 (11715501_s_at) / Fold change /veh IGFBP7 (11715501_s_at) / RFU REEP3 (11722064_at) / Fold change /veh REEP3 (11722064_at) / RFU IGLL1 (11728026_x_at) / Fold change /veh IGLL1 (11728026_x_at): dose or concentration left out as unconfirmed
Settings: MV-4-11 cells, 48 hours

For Nc1ncn([C@@H]2O[C@H](CO)[C@@H](O)[C@H]2O)c(=O)n1 [azacitidine], the “RFU PRF1 (11729649_at)” value was 19.15 RFU.
